This note sets out measurements from publication PMC5333395, “Assessing histone demethylase inhibitors in cells: lessons learned” (Epigenetics & Chromatin, 2017).

One experiment has as its target KDM5D (Homo sapiens, UniProt Q9BY66). The experiment in a line: AlphaScreen in vitro demethylase assay. It is filed as biochemical. Particulars: IC50 ± SD (number of replicates). How it is done:
IC50 values were determined as previously described. The following amendments were made to the protocol for carrying out 2-OG competition assays.
(Alpha assays give light when donor and acceptor beads are brought close together.)

The next experiment has as its target T1, KDM2A (Homo sapiens, UniProt Q9Y2K7).
T1 sequence (Q9Y2K7 1-1162): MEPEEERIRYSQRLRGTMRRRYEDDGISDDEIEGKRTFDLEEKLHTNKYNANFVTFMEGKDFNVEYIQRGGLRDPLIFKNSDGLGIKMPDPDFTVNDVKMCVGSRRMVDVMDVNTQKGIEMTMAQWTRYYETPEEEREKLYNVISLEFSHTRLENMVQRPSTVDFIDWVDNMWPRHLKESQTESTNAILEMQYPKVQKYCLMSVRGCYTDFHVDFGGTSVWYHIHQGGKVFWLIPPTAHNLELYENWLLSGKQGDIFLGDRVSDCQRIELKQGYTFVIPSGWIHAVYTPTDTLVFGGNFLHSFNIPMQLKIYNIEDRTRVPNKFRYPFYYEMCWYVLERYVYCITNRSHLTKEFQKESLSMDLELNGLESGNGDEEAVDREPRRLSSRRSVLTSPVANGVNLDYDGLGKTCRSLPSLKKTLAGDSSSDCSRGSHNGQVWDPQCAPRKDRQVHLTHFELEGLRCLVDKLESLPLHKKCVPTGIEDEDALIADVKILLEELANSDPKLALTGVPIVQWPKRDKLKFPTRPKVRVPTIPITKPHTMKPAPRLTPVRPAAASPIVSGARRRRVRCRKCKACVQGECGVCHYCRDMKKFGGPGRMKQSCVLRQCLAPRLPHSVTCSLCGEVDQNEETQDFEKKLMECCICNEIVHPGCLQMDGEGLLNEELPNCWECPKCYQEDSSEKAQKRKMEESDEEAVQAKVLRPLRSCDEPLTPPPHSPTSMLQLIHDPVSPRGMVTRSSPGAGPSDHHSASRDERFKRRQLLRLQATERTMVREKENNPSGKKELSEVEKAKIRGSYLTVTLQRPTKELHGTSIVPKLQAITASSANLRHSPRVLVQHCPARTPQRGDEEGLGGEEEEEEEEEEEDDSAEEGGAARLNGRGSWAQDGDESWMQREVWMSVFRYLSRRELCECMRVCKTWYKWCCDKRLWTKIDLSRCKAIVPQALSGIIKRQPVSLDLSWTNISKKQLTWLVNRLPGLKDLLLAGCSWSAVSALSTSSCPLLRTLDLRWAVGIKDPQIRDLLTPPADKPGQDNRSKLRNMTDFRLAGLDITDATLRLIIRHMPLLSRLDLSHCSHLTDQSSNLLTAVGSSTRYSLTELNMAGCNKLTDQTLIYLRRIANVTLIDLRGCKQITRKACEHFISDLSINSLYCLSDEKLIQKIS
Put plainly: High-content immunofluorescence (IF) assay, overexpressed full-length FLAG-tagged KDM in HeLa cells. In kind it is cell-based. The following applies: HeLa cells overexpressing WT KDM2A, 24 h; read-out: KDM2A, in cells, EC50 by IF assay (head: IC50).

The next experiment deals with T2, KDM4A (Homo sapiens, UniProt O75164, A482E).
T2 construct: transiently transfecting the full-length FLAG-tagged demethylase (WT) into cells; expressed in transfected cells; host or cells: HeLa
T2 sequence (O75164 1-1064 A482E): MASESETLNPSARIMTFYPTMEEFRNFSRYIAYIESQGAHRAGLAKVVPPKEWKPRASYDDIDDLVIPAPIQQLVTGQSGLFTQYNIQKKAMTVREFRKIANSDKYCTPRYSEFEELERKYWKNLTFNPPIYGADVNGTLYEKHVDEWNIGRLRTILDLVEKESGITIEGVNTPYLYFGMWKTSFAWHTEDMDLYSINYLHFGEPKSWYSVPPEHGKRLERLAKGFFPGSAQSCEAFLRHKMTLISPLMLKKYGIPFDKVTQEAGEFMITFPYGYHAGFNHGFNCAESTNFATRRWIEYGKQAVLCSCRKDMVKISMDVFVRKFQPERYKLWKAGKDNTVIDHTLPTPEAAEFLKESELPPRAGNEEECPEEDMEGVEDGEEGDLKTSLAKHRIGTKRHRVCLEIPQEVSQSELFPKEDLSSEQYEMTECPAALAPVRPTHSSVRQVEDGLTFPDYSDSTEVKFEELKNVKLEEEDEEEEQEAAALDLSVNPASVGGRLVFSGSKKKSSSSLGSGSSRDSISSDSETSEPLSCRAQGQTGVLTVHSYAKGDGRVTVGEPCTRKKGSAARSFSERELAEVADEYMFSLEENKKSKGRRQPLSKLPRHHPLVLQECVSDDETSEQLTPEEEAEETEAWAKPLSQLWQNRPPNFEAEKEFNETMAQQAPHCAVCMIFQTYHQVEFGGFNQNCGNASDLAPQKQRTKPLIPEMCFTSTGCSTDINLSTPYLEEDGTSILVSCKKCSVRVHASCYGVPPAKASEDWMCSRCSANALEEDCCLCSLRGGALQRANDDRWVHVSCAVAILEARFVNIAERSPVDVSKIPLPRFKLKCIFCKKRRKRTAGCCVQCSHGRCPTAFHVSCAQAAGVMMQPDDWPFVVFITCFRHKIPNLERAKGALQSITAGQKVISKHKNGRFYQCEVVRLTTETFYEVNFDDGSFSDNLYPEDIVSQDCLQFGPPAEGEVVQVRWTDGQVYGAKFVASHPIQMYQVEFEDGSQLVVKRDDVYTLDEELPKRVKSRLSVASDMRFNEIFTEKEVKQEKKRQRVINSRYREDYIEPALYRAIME
The description is as above. In kind it is cell-based. The following applies: HeLa cells transfected with KDM4A.

Sequence of KDM5D (Q9BY66 whole entry): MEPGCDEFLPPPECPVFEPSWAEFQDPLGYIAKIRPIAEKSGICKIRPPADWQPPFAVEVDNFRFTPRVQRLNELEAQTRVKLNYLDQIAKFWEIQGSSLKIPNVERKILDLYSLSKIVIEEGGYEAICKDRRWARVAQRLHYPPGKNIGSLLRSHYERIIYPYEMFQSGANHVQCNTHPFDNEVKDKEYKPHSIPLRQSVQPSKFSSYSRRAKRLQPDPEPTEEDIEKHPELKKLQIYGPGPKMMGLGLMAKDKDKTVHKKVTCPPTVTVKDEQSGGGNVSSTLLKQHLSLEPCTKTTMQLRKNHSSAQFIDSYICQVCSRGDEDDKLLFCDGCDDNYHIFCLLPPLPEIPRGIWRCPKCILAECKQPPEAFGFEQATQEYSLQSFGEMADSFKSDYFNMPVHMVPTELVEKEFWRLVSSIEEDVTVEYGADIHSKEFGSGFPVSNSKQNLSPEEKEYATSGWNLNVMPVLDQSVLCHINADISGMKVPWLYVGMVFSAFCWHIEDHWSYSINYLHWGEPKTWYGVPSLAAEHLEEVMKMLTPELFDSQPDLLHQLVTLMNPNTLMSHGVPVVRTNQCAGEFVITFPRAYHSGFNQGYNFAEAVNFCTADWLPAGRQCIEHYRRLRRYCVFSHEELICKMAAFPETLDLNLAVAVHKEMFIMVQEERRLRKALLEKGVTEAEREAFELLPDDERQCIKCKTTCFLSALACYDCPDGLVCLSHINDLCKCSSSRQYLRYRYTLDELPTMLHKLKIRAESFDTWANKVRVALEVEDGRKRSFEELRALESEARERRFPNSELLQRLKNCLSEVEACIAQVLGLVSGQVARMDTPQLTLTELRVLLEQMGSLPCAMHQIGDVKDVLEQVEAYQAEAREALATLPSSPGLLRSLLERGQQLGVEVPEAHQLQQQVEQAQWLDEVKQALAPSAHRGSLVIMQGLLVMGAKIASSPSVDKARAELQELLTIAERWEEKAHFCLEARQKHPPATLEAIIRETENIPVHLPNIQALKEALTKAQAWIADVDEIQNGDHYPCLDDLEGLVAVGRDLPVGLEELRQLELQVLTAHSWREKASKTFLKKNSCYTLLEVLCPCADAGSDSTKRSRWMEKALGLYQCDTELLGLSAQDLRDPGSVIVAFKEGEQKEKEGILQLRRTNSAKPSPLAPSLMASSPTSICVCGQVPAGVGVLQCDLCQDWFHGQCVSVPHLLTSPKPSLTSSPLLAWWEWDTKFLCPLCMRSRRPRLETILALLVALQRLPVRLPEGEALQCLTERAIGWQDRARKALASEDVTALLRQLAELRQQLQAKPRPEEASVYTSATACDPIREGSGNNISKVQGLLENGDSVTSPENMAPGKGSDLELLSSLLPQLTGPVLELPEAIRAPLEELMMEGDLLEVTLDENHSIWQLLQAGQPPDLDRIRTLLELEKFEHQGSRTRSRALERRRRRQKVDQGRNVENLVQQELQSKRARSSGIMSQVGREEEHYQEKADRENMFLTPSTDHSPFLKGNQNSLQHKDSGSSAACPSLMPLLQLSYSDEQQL

With `CCN(CCN(C)C)C(=O)CNCc1cc(C(=O)O)ccn1` [KDOAM-20], on KDM5D, half-maximal inhibition (IC50) required 19 ± 4 nM.

With `CCN(CCN(C)C)C(=O)CNCc1cncc(C(N)=O)c1` [KDOAM-32], the EC50 (usually the concentration at which the effect is half-maximal) at KDM2A was greater than 100000 nM.

Regarding `O=c1[nH]cnc2c(-n3cc(CCN4CCC(c5cccc(Cl)c5)CC4)cn3)cccc12` [CCT366293, 8-(4-(2-(4-(3-Chlorophenyl)piperidin-1-yl)ethyl)-1H-pyrazol-1-yl)quinazolin-4(3H)-one], at KDM4A, the “Effect on H3K9me3 levels in KDM4A IF assay, in words” value is recorded as “no effect”.
